Data as given in PMC10850145, “Hormonal steroids induce multidrug resistance and stress response genes in Neisseria gonorrhoeae by binding to MtrR” (Nature Communications, 2024).
Where “and” joins values, the source holds several entries; their conditions need not be identical. Equal entries are not always repeated. Where two headings read alike, the source gives them in different places.

Experiments:
FA19 mtrD::kan (KH14) = assay: MIC of steroidal hormones on GC agar, FA19 mtrD::kan (KH14); format: cell-based, Neisseria gonorrhoeae
Procedure: (§1) To determine the minimal inhibitory concentrations (MICs) by the steroidal hormones and their effect on antimicrobial susceptibility, 5 x 10^5 CFU and 1:5 serial dilutions of gonococcal strains were spotted on GC agar plates containing different concentrations of antibiotics and/or hormones as indicated. Antimicrobial susceptibility was assessed after 24 h incubation.
(§2) Table S1. Steroidal hormones are substrates of the MtrCDE efflux pump
(§3) Progesterone Testosterone
(§4) *Minimal inhibition concentration is defined by the lowest concentration at which visible growth is […]

gonococcal strain FA19 = assay: MIC of steroidal hormones on GC agar, strain FA19; format: cell-based; conditions: Neisseria gonorrhoeae
Procedure: as §1, §2, §3, §4

FA19-rpoH-lacZ = assay: Gonococcal growth in liquid culture (GC broth) with hormones (Fig S7)

C[C@]12CC[C@@H]3c4ccc(O)cc4CC[C@H]3[C@@H]1CC[C@@H]2O [β-Estradiol, β-estradiol]
MIC (FA19 mtrD::kan (KH14); Neisseria gonorrhoeae): 320 µg/mL and 1180 µM | effect of mtrD deletion on MIC (FA19 mtrD::kan (KH14); vs FA19): lowered | MIC (gonococcal strain FA19; FA19, 24 h): > 1180 µM | MIC (gonococcal strain FA19; strain FA19, GC agar, read-out: MIC): > 320 µg/mL | growth curve reading after BLANKING (FA19-rpoH-lacZ; 0 hr, 0.1 µM): 0.013 | growth curve reading, raw replicates (FA19-rpoH-lacZ; 0 hr, 0.1 µM): 0.046 | growth curve reading after BLANKING (FA19-rpoH-lacZ; 0 hr, 1 µM): 0.013 | growth curve reading, raw replicates (FA19-rpoH-lacZ; 0 hr, 1 µM): 0.046 | growth curve reading after BLANKING (FA19-rpoH-lacZ; 0 hr, 10 µM): 0.013 | growth curve reading, raw replicates (FA19-rpoH-lacZ; 0 hr, 10 µM): 0.046 | growth curve reading after BLANKING (FA19-rpoH-lacZ; 0 hr, 25 µM): 0.013 | growth curve reading, raw replicates (FA19-rpoH-lacZ; 0 hr, 25 µM): 0.046 | growth curve reading after BLANKING (FA19-rpoH-lacZ; 0 hr, 50 µM): 0.013 | growth curve reading, raw replicates (FA19-rpoH-lacZ; 0 hr, 50 µM): 0.046 | growth curve reading after BLANKING (FA19-rpoH-lacZ; 1.18 hr, 0.1 µM): 0.020 | growth curve reading, raw replicates (FA19-rpoH-lacZ; 1.18 hr, 0.1 µM): 0.052 and 0.053 | growth curve reading after BLANKING (FA19-rpoH-lacZ; 1.18 hr, 1 µM): 0.020 | growth curve reading, raw replicates (FA19-rpoH-lacZ; 1.18 hr, 1 µM): 0.054 and 0.052 | growth curve reading after BLANKING (FA19-rpoH-lacZ; 1.18 hr, 10 µM): 0.020 | growth curve reading, raw replicates (FA19-rpoH-lacZ; 1.18 hr, 10 µM): 0.053 and 0.054 | growth curve reading after BLANKING (FA19-rpoH-lacZ; 1.18 hr, 25 µM): 0.021 | growth curve reading, raw replicates (FA19-rpoH-lacZ; 1.18 hr, 25 µM): 0.053 and 0.056 | growth curve reading after BLANKING (FA19-rpoH-lacZ; 1.18 hr, 50 µM): 0.019 | growth curve reading, raw replicates (FA19-rpoH-lacZ; 1.18 hr, 50 µM): 0.052 and 0.053 | growth curve reading after BLANKING (FA19-rpoH-lacZ; 2 hr, 0.1 µM): 0.030 | growth curve reading, raw replicates (FA19-rpoH-lacZ; 2 hr, 0.1 µM): 0.062 and 0.065 | growth curve reading after BLANKING (FA19-rpoH-lacZ; 2 hr, 1 µM): 0.030 | growth curve reading, raw replicates (FA19-rpoH-lacZ; 2 hr, 1 µM): 0.063 | growth curve reading after BLANKING (FA19-rpoH-lacZ; 2 hr, 10 µM): 0.031 | growth curve reading, raw replicates (FA19-rpoH-lacZ; 2 hr, 10 µM): 0.063 and 0.065 | growth curve reading after BLANKING (FA19-rpoH-lacZ; 2 hr, 25 µM): 0.030 | growth curve reading, raw replicates (FA19-rpoH-lacZ; 2 hr, 25 µM): 0.062 and 0.064 | growth curve reading after BLANKING (FA19-rpoH-lacZ; 2 hr, 50 µM): 0.030 | growth curve reading, raw replicates (FA19-rpoH-lacZ; 2 hr, 50 µM): 0.063 | growth curve reading after BLANKING (FA19-rpoH-lacZ; 3 hr, 0.1 µM): 0.041 | growth curve reading, raw replicates (FA19-rpoH-lacZ; 3 hr, 0.1 µM): 0.076 and 0.072 | growth curve reading after BLANKING (FA19-rpoH-lacZ; 3 hr, 1 µM): 0.041 | growth curve reading, raw replicates (FA19-rpoH-lacZ; 3 hr, 1 µM): 0.074 and 0.073 | growth curve reading after BLANKING (FA19-rpoH-lacZ; 3 hr, 10 µM): 0.043 | growth curve reading, raw replicates (FA19-rpoH-lacZ; 3 hr, 10 µM): 0.079 and 0.074 | growth curve reading after BLANKING (FA19-rpoH-lacZ; 3 hr, 25 µM): 0.044 | growth curve reading, raw replicates (FA19-rpoH-lacZ; 3 hr, 25 µM): 0.078 and 0.075 | growth curve reading after BLANKING (FA19-rpoH-lacZ; 3 hr, 50 µM): 0.040 | growth curve reading, raw replicates (FA19-rpoH-lacZ; 3 hr, 50 µM): 0.074 and 0.072 | growth curve reading after BLANKING (FA19-rpoH-lacZ; 4 hr, 0.1 µM): 0.055 | growth curve reading, raw replicates (FA19-rpoH-lacZ; 4 hr, 0.1 µM): 0.087 and 0.090 | growth curve reading after BLANKING (FA19-rpoH-lacZ; 4 hr, 1 µM): 0.056 | growth curve reading, raw replicates (FA19-rpoH-lacZ; 4 hr, 1 µM): 0.089 and 0.088 | growth curve reading after BLANKING (FA19-rpoH-lacZ; 4 hr, 10 µM): 0.057 | growth curve reading, raw replicates (FA19-rpoH-lacZ; 4 hr, 10 µM): 0.088 and 0.092 | growth curve reading after BLANKING (FA19-rpoH-lacZ; 4 hr, 25 µM): 0.060 | growth curve reading, raw replicates (FA19-rpoH-lacZ; 4 hr, 25 µM): 0.093 | growth curve reading after BLANKING (FA19-rpoH-lacZ; 4 hr, 50 µM): 0.052 | growth curve reading, raw replicates (FA19-rpoH-lacZ; 4 hr, 50 µM): 0.082 and 0.088 | growth curve reading after BLANKING (FA19-rpoH-lacZ; 5 hr, 0.1 µM): 0.072 | growth curve reading, raw replicates (FA19-rpoH-lacZ; 5 hr, 0.1 µM): 0.104 and 0.106 | growth curve reading after BLANKING (FA19-rpoH-lacZ; 5 hr, 1 µM): 0.072 | growth curve reading, raw replicates (FA19-rpoH-lacZ; 5 hr, 1 µM): 0.105 | growth curve reading after BLANKING (FA19-rpoH-lacZ; 5 hr, 10 µM): 0.071 | growth curve reading, raw replicates (FA19-rpoH-lacZ; 5 hr, 10 µM): 0.103 and 0.105 | growth curve reading after BLANKING (FA19-rpoH-lacZ; 5 hr, 25 µM): 0.076 | growth curve reading, raw replicates (FA19-rpoH-lacZ; 5 hr, 25 µM): 0.113 and 0.106 | growth curve reading after BLANKING (FA19-rpoH-lacZ; 5 hr, 50 µM): 0.065 | growth curve reading, raw replicates (FA19-rpoH-lacZ; 5 hr, 50 µM): 0.094 and 0.103 | growth curve reading after BLANKING (FA19-rpoH-lacZ; 5.95 hr, 0.1 µM): 0.090 | growth curve reading, raw replicates (FA19-rpoH-lacZ; 5.95 hr, 0.1 µM): 0.124 and 0.123 | growth curve reading after BLANKING (FA19-rpoH-lacZ; 5.95 hr, 1 µM): 0.093 | growth curve reading, raw replicates (FA19-rpoH-lacZ; 5.95 hr, 1 µM): 0.126 and 0.125 | growth curve reading after BLANKING (FA19-rpoH-lacZ; 5.95 hr, 10 µM): 0.086 | growth curve reading, raw replicates (FA19-rpoH-lacZ; 5.95 hr, 10 µM): 0.118 and 0.119 | growth curve reading, raw replicates (FA19-rpoH-lacZ; 5.95 hr, 25 µM): 0.134 and 0.124 | growth curve reading after BLANKING (FA19-rpoH-lacZ; 5.95 hr, 50 µM): 0.083 | growth curve reading, raw replicates (FA19-rpoH-lacZ; 5.95 hr, 50 µM): 0.110 and 0.122 | growth curve reading, raw replicates (FA19-rpoH-lacZ; 6.82 hr, 0.1 µM): 0.137 and 0.133 | growth curve reading, raw replicates (FA19-rpoH-lacZ; 6.82 hr, 1 µM): 0.143 and 0.139 | growth curve reading after BLANKING (FA19-rpoH-lacZ; 6.82 hr, 10 µM): 0.092 | growth curve reading, raw replicates (FA19-rpoH-lacZ; 6.82 hr, 10 µM): 0.127 and 0.123 | growth curve reading after BLANKING (FA19-rpoH-lacZ; 6.82 hr, 25 µM): 0.114 | growth curve reading, raw replicates (FA19-rpoH-lacZ; 6.82 hr, 25 µM): 0.156 and 0.139 | growth curve reading, raw replicates (FA19-rpoH-lacZ; 6.82 hr, 50 µM): 0.124 and 0.136
